# Measurements as given in patent publication US4049795A, “Treatment of hemorrhagic shock” (priority 1974, dated 1977).
# Key:
# hemorrhagic shock = assay: Irreversible hemorrhagic shock (WIGGERS) in dogs; details: irreversible shock
# Procedure: These experiments were carried out with dogs. […] Spontaneous reinjection, by progressive circulatory failure, of a quarter of the mass of blood effused during the second hemmorhage, was chosen as the irreversibility criterion. The following parameters were measured: pH, arterial and venous CO2 pressure (with a radiometertype apparatus), lactacidemia, pyruvicemia and glycemia (by the enzymatic method), and kalemia (with a flame photometer). Samples were taken from the dogs before irreversibility, immediately after, one hour 11/2 hours and 2R hours thereafter. The blood pressure was followed by femoral intubation and recorded with an apparatus providing mean arterial bloodpressure readings.
# Rabbit atrium = assay: Isolated rabbit atrium; details: rabbit atrium
# Source text: The technique used for this study was the same as that described above for the ileum of the rabbit, but replacing the ileum with bled rabbit atrium. The preservation liquid used as LOCKE's liquid.
# glucidic metabolism = assay: Glucidic metabolism under intravenous perfusion in rabbits (lactacidemia, pyruvicemia, glycemia); type: in vivo, rabbit; details: 30 and 60 minutes after perfusion
# Procedure: These tests were carried out on rabbits weighing an average of 2.500 kg.
# A trachetomy was carried out under local anaesthesia with procaine. […] A saphenous vein and the two femoral arteries were catheterized under local anaesthesia in order to register the blood pressure by a manometer and to take blood samples; a jugular vein was catheterized to the base of the skull to sample cerebral venous blood.
# The results obtained were compared with those obtained following a perfusion carried out in the same way with sodium d,l-lactate at a dose of 40 mg/kg/min.
# The glycemia was measured by the enzymatic method in the arterial and cerebral venus blood. The samples were taken before the perfusion, at the end of the perfusion, and at 30 minutes and 60 minutes after perfusion.
# [1] = test system: reticulo-endothelial system; assay: Phagocytic activity of the reticulo-endothelial system, carbon clearance (HALPERN); type: in vivo, rabbit; details: FIGS. 3 and 4
# Source text: That technique is based on the study of the kinetics of the disappearance in the blood of particles of carbon injected into the vein. The kinetics of disappearance follow the equation [formula] in which formula C1 is the concentration of carbon in the blood at time T1 and C2 is the concentration of carbon in the blood at time T2, K being a constant. The constant K, called phagocytic index, represents the phagocytic activity of the cells of the reticule-endothelial system under the experimental conditions. For the tests, the technique and carbon suspension described by […]. Physiol. of Paris, Vol. 50, p. […] The study was done on rabbits of the same stock, male or female, or an average weight of about 2.5 kg, devided into four batches of four animals each. The first batch was used as controls and received, by slow intravenous injection, 10 ml of a 0.8% solution of sodium chloride ten minutes before the injection of 4 mg of carbon per 100 g of animal. […] In all the tests, a total volume of 10 ml was injected with a fairly closely related injection speed (less than five minutes).
# [2] = test system: free fatty acids in the plasma; assay: Non-esterified fatty acids in the plasma (DOLE); type: in vivo, rabbit
# Procedure: Doses of 1 and 2 mg of adrenalin were introduced subcutaneously into rabbits weighing 2.5 to 3.5 kg.
# FIGS. 8, 9 and 10 show the variation in the percentage of non-esterified fatty acids in the plasma as a function of the time. […]
# Rabbit ileum = assay: Isolated rabbit ileum, tonus; details: without dihydroxyacetone
# Procedure: Fragments of the ileum were suspended in a 75 ml isolated organ tank containing Tyrode's solution maintained at 37° C. by a thermostat and oxygenated by bubbling pure oxygen at a constant rate of flow. The movement of the organ were recorded by means of a lever on a cylinder rotating at a known constant speed.
smiles,measurement,setting,value
"O=C[C@H](O)[C@@H](O)[C@H](O)[C@H](O)CO [hypertonic glucose, glucose, reference compound]",effect on the blood pressure in hemorrhagic shock,hemorrhagic shock,no effect
same,effect on the blood pressure in hemorrhagic shock,hemorrhagic shock; listed as 30% glucose,none
"CC(O)C(=O)O (racemic) [sodium lactate, sodium d,l-lactate, reference compound]",action on rhythm of atrium,Rabbit atrium,accelerates the rhythm
same,lactacidemia at 30 and 60 minutes after the end of perfusion,glucidic metabolism,tended to return to its initial values
same,rate of phagocytosis,[1],increased
CNCC(O)c1ccc(O)c(O)c1 (stereo not drawn) [adrenalin],proportion of non-esterified fatty acids one hour after injection,"[2]; 1 mg of adrenalin, FIG. 9",fell below normal
same,proportion of non-esterified fatty acids one hour after injection,"[2]; 2 mg of adrenalin, FIG. 8",again increased
same,average proportion of non-esterified fatty acids about 10 to 15 minutes after injection,"[2]; 1 or 2 mg of adrenalin, fed rabbits",increased
"[Cl-].[K+] [Potassium chloride, reference compound]","tonus of the fiber, ordinary effect",Rabbit ileum,increases the tonus of the fiber in a stable manner
